SMILES strings stand for the structures.

This experiment addresses T1, Epidermal growth factor receptor (EGFR) kinase (Homo sapiens, UniProt P00533).
T1 construct: EGFR protein (GST-tagged)
The experiment is described as follows: HTRF KinEASE-TK kinase assay with GST-tagged EGFR. It counts as biochemical. A general note: Time-resolved FRET reads energy transfer from a long-lived donor to a nearby acceptor.

T1 sequence (P00533 25-1210): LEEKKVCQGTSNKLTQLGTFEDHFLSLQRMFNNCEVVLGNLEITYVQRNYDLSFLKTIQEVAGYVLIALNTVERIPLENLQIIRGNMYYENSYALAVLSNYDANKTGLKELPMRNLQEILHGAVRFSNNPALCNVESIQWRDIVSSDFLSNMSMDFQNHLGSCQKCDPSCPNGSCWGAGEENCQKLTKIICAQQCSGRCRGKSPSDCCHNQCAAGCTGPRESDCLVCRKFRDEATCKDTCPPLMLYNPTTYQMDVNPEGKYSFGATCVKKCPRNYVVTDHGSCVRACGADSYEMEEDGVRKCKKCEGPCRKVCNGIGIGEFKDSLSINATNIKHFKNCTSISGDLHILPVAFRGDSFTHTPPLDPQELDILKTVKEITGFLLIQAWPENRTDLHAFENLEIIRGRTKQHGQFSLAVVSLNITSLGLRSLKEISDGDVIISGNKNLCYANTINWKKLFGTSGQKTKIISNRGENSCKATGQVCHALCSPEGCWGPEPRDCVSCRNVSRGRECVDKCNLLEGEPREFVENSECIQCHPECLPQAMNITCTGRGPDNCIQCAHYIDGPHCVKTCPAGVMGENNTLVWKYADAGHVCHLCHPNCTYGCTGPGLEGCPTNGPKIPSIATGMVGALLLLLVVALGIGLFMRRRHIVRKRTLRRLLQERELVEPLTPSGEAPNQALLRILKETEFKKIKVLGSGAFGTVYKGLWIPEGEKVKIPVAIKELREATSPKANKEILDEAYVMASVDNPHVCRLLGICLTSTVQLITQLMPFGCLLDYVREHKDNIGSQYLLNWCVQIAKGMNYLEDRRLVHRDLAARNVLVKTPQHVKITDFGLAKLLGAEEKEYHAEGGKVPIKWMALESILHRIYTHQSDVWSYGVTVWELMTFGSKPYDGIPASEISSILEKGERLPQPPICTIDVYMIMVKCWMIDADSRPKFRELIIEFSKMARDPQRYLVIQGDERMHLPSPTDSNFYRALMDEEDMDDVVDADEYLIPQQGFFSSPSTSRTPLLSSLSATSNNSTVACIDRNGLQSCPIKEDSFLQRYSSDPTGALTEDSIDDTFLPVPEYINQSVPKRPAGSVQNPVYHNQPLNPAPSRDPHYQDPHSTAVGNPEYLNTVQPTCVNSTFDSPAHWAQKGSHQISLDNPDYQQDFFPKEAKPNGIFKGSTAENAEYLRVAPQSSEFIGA

The term IC50 denotes the midpoint of a concentration-inhibition curve. Read a low IC50 as higher potency. `CC(C)=CCC[C@](C)(O)[C@H]1CC[C@]2(C)[C@@H]1[C@H](O)C[C@@H]1[C@@]3(C)CC[C@H](O[C@@H]4O[C@H](CO)[C@@H](O)[C@H](O)[C@H]4O)C(C)(C)[C@@H]3CC[C@]12C` [20(S)-ginsenoside Rh2] had an IC50 of 2780 ± 160 nM.

These data come from paper PMC8803441, “Identification of 20(S)-Ginsenoside Rh2 as a Potential EGFR Tyrosine Kinase Inhibitor” (Oxidative Medicine and Cellular Longevity, 2022).
